Laboratory results taken from article PMC6539602, “Antioxidant and Photoprotective Activity of Apigenin and Its Potassium Salt Derivative in Human Keratinocytes and Absorption in Caco-2 Cell Monolayers” (International Journal of Molecular Sciences, 2019).

Experiments:
[1] = Ferric reducing antioxidant power (FRAP); format: biochemical; settings: mean ± SD
Protocol: (§1) Three different methods were performed to determine the antioxidant capacity of both apigenins. The Trolox equivalent antioxidant capacity (TEAC) was performed, as previously reported to establish the ABTS^·+ scavenging ability of both compounds [21]. The TEAC of the samples was calculated from the standard curve of Trolox, and the results are expressed in micromoles of Trolox equivalents (TE) per millimole of compound. The ferric reducing antioxidant power (FRAP) assay was performed, as described elsewhere. The reduction of a ferric-tripyridyltriazine complex was estimated, and the results are expressed in micromoles of Fe^2+ per millimole of compound. To assay the capacity of the compounds to scavenge peroxyl radicals, a validated assay of the oxygen radical absorbance capacity (ORAC) method was used. The ORAC assay was carried out on a microplate reader (POLAstar Omega, BMG LabTech GmbH, Offenburg, Germany) with 495 nm excitation and 520 nm emission filters to monitor fluorescein oxidation. The results are expressed in micromoles of TE per millimole of compound.

[2] = Trolox equivalent antioxidant capacity (TEAC); format: biochemical; settings: Trolox equivalents per millimole of compound; mean ± SD
Protocol: as §1

[3] = system: Caco-2 cell monolayer; parameters: method as in PMID 29186068; settings: Caco-2 cell model; cited from earlier work
[4] = Oxygen radical absorbance capacity (ORAC); format: biochemical; settings: Trolox equivalents per millimole of compound; mean ± SD
Protocol: as §1

[5] = Caco-2 cell monolayer bidirectional permeability; format: in vitro ADME; settings: human
Protocol: The cells were seeded into 6-well inserts with a polyethylene terephthalate (PET) membrane (pore size of 0.4 µm) (BD Falcon) at a density of 1.0 × 10^5 cells. Cell culture was maintained at 37 °C under 90% humidity and 5% CO2. The medium was replaced every 2–3 days for both the apical (AP) and basolateral (BL) chambers of the transwell filters. Cell monolayers were used 19–21 days after seeding, once confluence and differentiation were achieved. To check the integrity of each cell monolayer, the transepithelial electrical resistance (TEER) was measured before and after the experiments with an epithelial voltohmmeter (Millicell-ERS®). Permeability studies were performed by adding apigenin and apigenin-K at a concentration of 50 µM dissolved in HBSS medium (pH 7.4). The transport experiment was initiated by removing the culture medium from the AP and BL chambers. HBSS medium was prewarmed to wash the Caco-2 monolayers twice and, subsequently, to incubate the monolayers for 30 min at 37 °C. Afterwards, the test compounds were added to the apical (AP) or basolateral (BL) chambers to perform bidirectional permeability studies, while the receiving chamber contained the corresponding volume of HBSS. The six-well plate containing the cell monolayers was put into an orbital environmental shaker, which was set at a constant temperature (37 °C) and agitation rate (54 rpm) for the duration of the permeability experiments. […] The apparent permeability (Papp) values for each compound and direction can be calculated according to the following equation:(2) Papp= dQ/dt×1/A×C0×60 where Papp is the apparent permeability (cm/s), dQ/dt is the steady state flux, A is the diffusion area of the membrane (cm^2), C0 is the initial compound concentration in the donor compartment (µM) and 60 is a conversion factor [54]. […] In addition, the efflux ratio (ER) was calculated to determine the absorption mechanism, such as the ratio of Papp (BL-AP) to Papp (AP-BL). (3) ER= Papp (BL-AP)/Papp (AP-BL) The analyses of the samples from the permeability assay were analyzed via a high-performance liquid chromatograph Agilent LC 1100 series (Agilent Technologies, Inc., Palo Alto, CA, USA) controlled by the ChemStation software and equipped with a pump, autosampler, column oven and UV-Vis diode array detector. The samples were separated on a Poroshell 120 SB-C18 column (2.7 µm, 4.6 × 150 mm) after each 10 µL injection and were monitored at 280 nm. […] Quantitative evaluations of the apigenin or apigenin-K concentration were performed using the corresponding calibration graph of each compound with a six-point regression curve (r^2 > 0.999).

Which results are given for O=c1cc(-c2ccc(O)cc2)oc2cc(O)cc(O)c12 [Apigenin, 4′,5,7-trihydroxyflavone]?
FRAP [1]: 113.2 ± 12.2 µmol Fe^2+/mmol; TEAC [2]: 2022.2 ± 154.8 µmol TE/mmol; apparent permeability relative to its flavonol kaempferol [3]: 2.5 fold; ORAC [4]: 887.9 ± 5.8 µmol TE/mmol; efflux ratio at 120 min, 50 µM ([5]; Caco-2, pH 7.4, Papp (BL-AP)/Papp (AP-BL)): 0.51; Papp A→B at 120 min, 50 µM ([5]; Caco-2, apical-to-basolateral, 50 µM, HBSS pH 7.4, 120 min, mean of 6 replicates ± SD): 18.1 ± 1.7 ×10⁻⁶ cm/s; Papp B→A at 120 min, 50 µM ([5]; Caco-2, basolateral-to-apical, 50 µM, HBSS pH 7.4, 120 min, mean of 6 replicates ± SD): 9.3 ± 1.3 ×10⁻⁶ cm/s; Papp at 120 min, 50 µM ([5]; pH 7.4, Caco-2 cell model, read-out: apparent permeability (Papp)): 18.1 ×10⁻⁶ cm/s
